Test results taken from article PMC10350920, “Development of a 2,4-Diaminothiazole Series for the Treatment of Human African Trypanosomiasis Highlights the Importance of Static–Cidal Screening of Analogues” (Journal of Medicinal Chemistry, 2023).

Tests used:
[1] = test system: BSF T. b. brucei “single marker” S427; test: Drug sensitivity assay with bloodstream-form T. brucei; format: cell-based; settings: Trypanosoma brucei; mean values; number of replicates in parentheses
Protocol: (§1) Drug sensitivity assays with BSF T. b. brucei “single marker” S427 and human MRC-5 fibroblasts were conducted as previously described.[43]

[2] = Mammalian cell counter screen (MRC-5); format: cell-based, human; settings: human, MRC-5 fibroblasts; mean values; number of replicates in parentheses
Protocol: as §1

human MRC-5 fibroblasts = test: Mammalian cell counter screen (MRC-5); format: cell-based; settings: for SI: selectivity index (EC50 MRC5/EC50 T. brucei)
Protocol: as §1

[3] = Mouse liver microsomal intrinsic clearance; format: in vitro ADME
Protocol: Test compounds (0.5 μM) were incubated with female CD1 mouse liver microsomes (Xenotech LLC; 0.5 mg mL^–1 50 mM potassium phosphate buffer, pH 7.4), and the reaction started with the addition of excess NADPH (8 mg mL^–1 50 mM potassium phosphate buffer, pH 7.4). Immediately, at 0 min, and then at 3, 6, 9, 15, and 30 min, an aliquot (50 μL) of the incubation mixture was removed and mixed with acetonitrile (100 μL) to stop the reaction. The internal standard was added to all samples, the samples were centrifuged to sediment the precipitated protein, and the plates were then sealed prior to UPLC–MS/MS analysis using a Quattro Premier XE (Waters Corporation, USA). XLfit (IDBS, UK) was used to calculate the exponential decay and consequently the rate constant (k) from the ratio of the peak area of the test compound to the internal standard at each time point. The rate of intrinsic clearance (CLint) of each test compound was then calculated using the following calculation [drawing 3] where V (mL mg^–1 protein) is the incubation volume mg^–1 protein added and the microsomal protein yield is taken as 52.5 mg protein g^–1 liver. Verapamil (0.5 μM) was used as a positive control to confirm acceptable assay performance.

[4] = Rat microsomal intrinsic clearance; format: in vitro ADME; settings: second value of mouse/rat cell
[5] = Mouse brain penetration (brain:blood ratio); format: in vivo, female NMRI mice; settings: female, NMRI, mouse, brain and blood, 10 mg kg^–1; mice, bolus of test compound, total compound; read-out: brain/blood (B/B) ratio
Protocol: Medicines for HAT are required to treat both acute and chronic infections, where parasites pass through the blood/brain barrier and enter the CNS. With this in mind, mice were dosed with an […] bolus of our test compounds, and compound concentrations in blood and brain were determined by UPLC–MS/MS. […] The brain fraction unbound was 0.0063 for 16 and 0.0313 for 38. Brain penetration of the series as a whole tracked with the generally accepted rules of CNS penetration, with a lower topological PSA (TPSA) and molecular weight compounds having an increased B/B ratio (Table S2 and Figure S1). However, the link between log P and the B/B ratio was slightly less convincing. […] This difference could be explained by 18 being a substrate for the P-glycoprotein efflux pump.
Each compound was dosed as an IV bolus at 10 mg kg^–1 dissolved in 15% solutol/Milli-Q (dose volume 10 mL kg^–1) to female NMRI mice (n = 3). At 30 min following the IV bolus of the test compound, mice (n = 3/time point) were placed under terminal anesthesia with isoflurane. A blood sample was taken by cardiac puncture and added to two volumes of distilled water, and the brain was removed. […] For each mouse at each time point, the concentration in the brain (ng g^–1) was divided by the concentration in blood (ng mL^–1) to give a brain: blood ratio.

[6] = Human microsomal intrinsic clearance; format: in vitro ADME; settings: second value of mouse/human cell
[7] = Equilibrium dialysis, free fraction in plasma; format: in vitro ADME, mouse; settings: matrix not given; for fraction unbound at 5 h, 10 μg mL^–1: CD1, mouse, plasma, pH 7.4, read-out: Fu (free fraction)
Protocol: In brief, a 96-well equilibrium dialysis apparatus was used to determine the free fraction in plasma and the brain (HT Dialysis LLC, Gales Ferry, CT). Isotonic buffer was prepared using 8.69 g of Na2HPO4, 1.9 g of KH2PO4, and 4.11 g of NaCl dissolved in 1 L of Milli-Q water, and the pH was adjusted to 7.4. Artificial CSF was prepared using 3.652 g of NaCl, 93.2 mg of KCl, 119.96 mg of MgCl2, 92.61 mg of CaCl2, and 268 mg of Na2HPO4 heptahydrate dissolved in 0.5 L of water, and the pH was adjusted to 7.4. Membranes [12–14 (plasma) or 6–9 (brain) kDA cutoff] were conditioned in deionized water for 60 min, followed by conditioning in 80:20 deionized water/ethanol for 20 min, and then rinsed in isotonic buffer (plasma) or […] (brain) before use. Female CD1 mouse plasma was defrosted and centrifuged for 10 min at 3000 rpm (Allegra X12-R, Beckman Coulter, USA). The control mouse brain was homogenized in two volumes of artificial CSF in a Covaris S2 acoustic homogenizer. Plasma or brain homogenate was spiked with the test compound (10 μg mL^–1), and 150 μL aliquots (n = 3 replicate determinations) were loaded into the 96-well equilibrium dialysis plate. Dialysis versus 150 μL of isotonic buffer (plasma) or artificial CSF (brain) was carried out for 5 h in a temperature-controlled incubator at 37 °C (Barworld Scientific Ltd, UK) using an orbital microplate shaker at 125 rpm (Barworld Scientific Ltd, UK). At the end of the incubation period, aliquots of plasma/homogenized brain or buffer were transferred to a clean 96-well plate, and the composition in each well was balanced with control fluid, such that the volume of buffer to the matrix was the same. Sample extraction was performed by the addition of 400 μL of acetonitrile containing an appropriate internal standard. Samples were allowed to mix for 1 min and then centrifuged at 3000 rpm in 96-well blocks for 10 min (Allegra X12-R, Beckman Coulter, USA). All samples were analyzed by means of UPLC/MS/MS on a Quattro Premier XE or Micro TQs mass spectrometer (Waters Corporation, USA). The unbound fraction was determined as the ratio of the peak area in the buffer to that in the matrix.

T. brucei wild-type = test: Drug sensitivity, wild-type parental line; format: cell-based, T. b. brucei; settings: Trypanosoma brucei; weighted mean of ≥3 independent experiments
Protocol: (§2) Drug sensitivity assays were carried out with BSF T. b. brucei “single marker” S427 or BSF T. b. brucei, Lister 427, MiTat 1.2, clone 221a 2T1 cells,[45] cells grown at 37 °C with 5% CO2 in an HMI-9T medium[46] as previously described.[47] 2T1 cells were initially maintained with 1 μg mL^–1 puromycin and 1 μg mL^–1 phleomycin prior to transfection or 2.5 μg mL^–1 hygromycin and 1 μg mL^–1 phleomycin after transfection. Induction of overexpression was achieved by the addition of 1 μg mL^–1 tetracycline to the culture medium.
(§3) Compound-resistant cell lines were generated by subculturing a clone of T. brucei in the continuous presence of 38. Starting at sublethal concentrations, drug concentrations in two independent cultures were increased in a stepwise manner, usually 2-fold. When parasites were able to survive and grow in concentrations of drugs equivalent to more than 10 times the established EC50 value, the resulting cell lines were cloned by limiting dilution in the presence of the compound. Two clones (RES I-II) were selected for further biological study. A standard alkaline lysis protocol was used to isolate genomic DNA from compound-resistant bloodstream T. brucei parasites (∼1 × 10^8). Whole genome sequencing was performed using a DNB-seq next-generation sequencing platform (BGI, Hong Kong). Sequencing reads (150 bp) were aligned to the T. brucei TREU927 genome (v39; tritrypDB) using Bowtie2[48] and Samtools[49] software. […] Samtools and BCFtools[52] (mpileup) were used to call SNP and indels compared with the wild-type starter clone, where the overall quality score (QUAL) was >100. Artemis[50] was used to analyze chromosome and gene copy number variation, as well as visualization of SNPs.

T. brucei RES I = test: Drug sensitivity, compound 38-resistant clone RES I; format: cell-based, T. b. brucei
Protocol: as §2, §3

T. brucei RES II = test: Drug sensitivity, compound 38-resistant clone RES II; format: cell-based, T. b. brucei
Protocol: as §2, §3

[8] = Kinetic aqueous solubility (laser nephelometry); format: physicochemical; settings: Milli-Q water with 2.5% DMSO
Protocol: The kinetic aqueous solubility of the test compounds was measured using laser nephelometry. Compounds were subject to serial dilution from 10 to 0.5 mM in DMSO. An aliquot was then mixed with Milli-Q water to obtain an aqueous dilution plate with a final concentration range of 13–250 μM, with a final DMSO concentration of 2.5%. Triplicate aliquots were transferred to a flat-bottomed polystyrene plate which was immediately read on the NEPHELOstar (BMG Lab Technologies). The amount of laser scatter caused by insoluble particulates (relative nephelometry units, RNUs) was plotted against compound concentration using a segmental regression fit, with the point of inflection being quoted as the compound’s aqueous solubility (μM).

[9] = relative to the parental wild-type, in brackets

Compound | EC50 [1] | EC50 [2] | SI (human MRC-5 fibroblasts) | CLint (mouse) [3] | CLint (human) [6] | also measured
CC(OCC(=O)c1sc(Nc2ccc(Cl)cc2)nc1N)C(F)(F)F (stereo not drawn) [Compound 51, 1-(4-Amino-2-((4-chlorophenyl)amino)thiazol-5-yl)-2-((1,1,1-trifluoropropan-2-yl)oxy)ethanone] | 8 nM | > 50000 nM | 6250 | 5.3 mL·min/g | – | CLint (rat) [4]: 1.7 mL·min/g; Kp at 30 min [5]: 0.9
CC(C)CC(=O)c1sc(Nc2ccc(F)c(F)c2)nc1N [Compound 37, 1-(4-Amino-2-((3,4-difluorophenyl)amino)thiazol-5-yl)-3-methylbutan-1-one] | 200 nM | > 50000 nM | >250 | 5.9 mL·min/g | 3.2 mL·min/g | Kp at 30 min [5]: 4.7
Nc1nc(Nc2ccccc2)sc1C(=O)c1ccccc1 [Compound 34, (4-Amino-2-(phenylamino)thiazol-5-yl)(phenyl)methanone] | 160 nM | 11000 nM | 69 | 12 mL·min/g | < 0.5 mL·min/g | selectivity over MRC-5 cell line (human MRC-5 fibroblasts): ~100 fold
Nc1nc(NC2CCCC(O)C2)sc1C(=O)c1c(F)cccc1F (stereo not drawn) [Compound 16B] | 948 nM | – | – | 1.8 mL·min/g | – | fraction unbound at 5 h, 10 μg mL^–1 [7]: 0.22
Nc1nc(NC2CCCCC2)sc1C(=O)c1ccc(OC(F)F)cc1 [Compound 26, (4-Amino-2-(cyclohexylamino)thiazol-5-yl)(4-(difluoromethoxy)phenyl)methanone] | 60 nM | 22000 nM | – | 2.9 mL·min/g | 0.8 mL·min/g | Fu (free fraction) [7]: low
O=C1Nc2ccc3ncsc3c2/C1=C/Nc1ccc(S(=O)(=O)Nc2ccccn2)cc1 [GW8510] | – | – | – | – | – | EC50 (T. brucei wild-type): 120 ± 8 nM; EC50 (T. brucei RES I; Trypanosoma brucei, read-out: EC50, RES I): 65 ± 4 nM; fold resistance, RES I (T. brucei RES I; [9]): 1; EC50 (T. brucei RES II; Trypanosoma brucei, read-out: EC50, RES II): 110 ± 4 nM; fold resistance, RES II (T. brucei RES II; [9]): 1
CC(OCC(=O)c1sc(Nc2ccn(C)n2)nc1N)C(F)(F)F (stereo not drawn) [Compound 55, 1-(4-Amino-2-((1-methyl-1H-pyrazol-3-yl)amino)thiazol-5-yl)-2-((1,1,1-trifluoropropan-2-yl)oxy)ethan-1-one] | 190 nM | 9400 nM | 50 | 10.8 mL·min/g | – | solubility [8]: > 100 µg/mL
Nc1nc(N[C@H]2CC[C@H](O)CC2)sc1C(=O)c1c(F)cccc1F [Compound 16A] | 360 nM | – | – | – | – | fraction unbound at 5 h, 10 μg mL^–1 [7]: 0.39
CC(OCC(=O)c1sc(Nc2ccc(C(F)(F)F)nc2)nc1N)C(F)(F)F (stereo not drawn) [Compound 56, 1-(4-Amino-2-((6-(trifluoromethyl)pyridine-3-yl)amino)thiazol-5-yl)-2-((1,1,1-trifluoropropan-2-yl)oxy)ethanone] | 520 nM | > 50000 nM | 96 | – | – | solubility [8]: > 100 µg/mL
